Experimental data: US20170112861A1, “DRUG DELIVERY ENHANCER COMPRISING SUBSTANCE FOR ACTIVATING LYSOPHOSPHOLIPID RECEPTORS” (Osaka University, priority 2014, published 2017)

Legend:
[1] = system: Mouse pancreatic vascular endothelial cell line (MS-1); test: In vitro barrier function of endothelial cell-cell junctions (ECIS-Zθ, resistance between cells Rb); format: cell-based; settings: MS-1 cells, 10 μM
Method: In vitro barrier function of the cell-cell junctions of vascular endothelial cells in the presence of LPA or VPC 31144 (S) was analyzed using a real-time cell ECIS-Zθ analyzer (Applied Biophysics).
LPA and VPC 31144 (S) were each dissolved in 50% ethanol as a 10 mM LPA stock solution and stored at −30° C. Before use, the LPA stock solution was thawed and homogenized with an ultrasonic cleaner (SND Co., Ltd.) for 1 minute. The solution was diluted in a serum-free culture medium supplemented with 0.1% BSA to a concentration of 10 μM.
Mouse pancreatic vascular endothelial cell line (MS-1) was used. The cells were suspended in DMEM (Sigma) containing 5% FBS. The cell suspension was seeded on a well plate with electrodes (8W10E+, 8 wells) specially designed for the analyzer at a density of 1×10^5 cells in 400 μL per well, and the cells were cultured overnight in an incubator to confluence. The medium was replaced by serum-free culture medium containing 0.1% BSA, and the cells were incubated for 4 hours. The medium was replaced by culture medium (serum-free culture medium containing 0.1% BSA) containing 10 μM LPA or VPC 31144 (S). The medium of the control cultures was replaced by serum-free culture medium containing 0.1% BSA. After replacement of the medium, resistance between cells (Rb) was measured in real time to evaluate the barrier function.

[2] = system: tumor blood vessels of LLC cell tumors; test: Structural changes in tumor blood vessels after S1P administration (anti-CD31 immunostaining); format: in vivo; settings: LLC tumor-bearing mice, S1P 0.3 mg/kg tail vein once daily for three days, 24 hours after final administration
Method: LLC cells were subcutaneously inoculated into C57BL/6 […] mice aged 8 weeks (females, SLC, Inc.) in the same manner as in Example 1. S1P (Avanti Polar Lipids, Inc.) was dissolved in PBS at 10 mM and the solution was stored at -30° C. as a stock solution. Before use, the stock solution was thawed and homogenized with an ultrasonic cleaner (SND Co., Ltd.) for 1 minute. The solution was diluted in PBS before administration so that the concentration of S1P was 0.3 mg/kg in 100 μL PBS. The prepared solution was used for S1P administration. Mice on day 9 post-inoculation of LLC cells (individuals with a tumor volume of 60 to 80 mm^3) were subjected to the experiment. The mice were divided into two groups: control group and S1P group (n=3). From the day of grouping, S1P was administered to the tail vein of the S1P group mice at a dose of 0.3 mg/kg in 100 μL PBS once daily for consecutive three days. To the control group mice, PBS (100 μL) was administered instead of S1P. At 24 hours after the final administration, the tumors were harvested from the mice, and the specimens of tumor blood vessels were prepared in the same manner as in Example 1. The specimens were observed and photographed under a confocal laser microscope (Leica).

Compound | speed of barrier function increase ([1]; immediately after addition, compared with LPA) | electric resistance (Rb), barrier function in endothelial cells ([1]; serum-free medium with 0.1% BSA, vs control) | formation of a network of tumor blood vessels [2]
CCCCCCCC/C=C\CCCCCCCC(=O)N[C@@H](CO)COP(=O)(O)O [VPC 31144, N-{(1S)-2-hydroxy-1-[(phosphonooxy)methyl]ethyl}(9Z) octadec-9-enamide] | more rapidly increased the barrier function immediately after the administration, as compared with addition of LPA | also increased the barrier function in endothelial cells | 
CCCCCCCCCCCCC/C=C/[C@@H](O)[C@@H](N)COP(=O)(O)O [S1P, sphingosine-1-phosphate] |  |  | the formation of a network of tumor blood vessels was induced
